pIC50: −log10 of the molar value.
Tested on: 233499-124-R-J3-PDC spheroids with HUVEC/MSC, viability
Assay: Anticancer human tumor 233499-124-R-J3-PDC patient-derived colon adenocarcinoma cell line growth inhibition [PI3K]
Conditions: for pIC50: curve of first compound; for viability, T/C: stronger effect = lower value; active means viability on the fitted dose curve at most 10% of control; inactive means the rest
Procedure, shortened: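 Viability of mixed-cell spheroids was determined after exposure to pairwise combinations, one partner being inavolisib, alpelisib, duvelisib or copanlisib. Highest tested concentration matched clinical Cmax where known and 10 microM where not, descending in half-log steps.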

[1] = second compound 0.0316 µM, first compound 0.0316 µM
[2] = second compound 0.0316 µM, first compound 0.1 µM
[3] = second compound 0.0316 µM, first compound 0.316 µM
[4] = second compound 0.0316 µM, first compound 1 µM
[5] = second compound 0.0316 µM, first compound 3.16 µM
[6] = second compound 0.0316 µM, first compound 10 µM
[7] = second compound 0.1 µM, first compound 0.0316 µM
[8] = second compound 0.1 µM, first compound 0.1 µM
[9] = second compound 0.1 µM, first compound 0.316 µM
[10] = second compound 0.1 µM, first compound 1 µM
[11] = second compound 0.1 µM, first compound 3.16 µM
[12] = second compound 0.1 µM, first compound 10 µM
[13] = second compound 0.316 µM, first compound 0.0316 µM
[14] = second compound 0.316 µM, first compound 0.1 µM
[15] = second compound 0.316 µM, first compound 0.316 µM
[16] = second compound 0.316 µM, first compound 1 µM
[17] = second compound 0.316 µM, first compound 3.16 µM
[18] = second compound 0.316 µM, first compound 10 µM
[19] = second compound 1 µM, first compound 0.0316 µM
[20] = second compound 1 µM, first compound 0.1 µM
[21] = second compound 1 µM, first compound 0.316 µM
[22] = second compound 1 µM, first compound 1 µM
[23] = second compound 1 µM, first compound 3.16 µM
[24] = second compound 1 µM, first compound 10 µM
[25] = second compound 3.16 µM, first compound 0.0316 µM
[26] = second compound 3.16 µM, first compound 0.1 µM
[27] = second compound 3.16 µM, first compound 0.316 µM
[28] = second compound 3.16 µM, first compound 1 µM
[29] = second compound 3.16 µM, first compound 3.16 µM
[30] = second compound 3.16 µM, first compound 10 µM
[31] = second compound 10 µM, first compound 0.0316 µM
[32] = second compound 10 µM, first compound 0.1 µM
[33] = second compound 10 µM, first compound 0.316 µM
[34] = second compound 10 µM, first compound 1 µM
[35] = second compound 10 µM, first compound 3.16 µM
[36] = second compound 10 µM, first compound 10 µM
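Further: spheroids exposed to agents for seven days before readout.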
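Wherever viability, T/C is given: percent viability relative to DMSO vehicle control taken as 100%.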

CC1(C)CCC(CN2CCN(c3ccc(C(=O)NS(=O)(=O)c4ccc(NCC5CCOCC5)c([N+](=O)[O-])c4)c(Oc4cnc5[nH]ccc5c4)c3)CC2)=C(c2ccc(Cl)cc2)C1 + Cc1nc(NC(=O)N2CCCC2C(N)=O)sc1-c1ccnc(C(C)(C)C(F)(F)F)c1
5.27: pIC50 (second compound 0.316 µM)
5.58: pIC50 (second compound 3.16 µM)
active: viability, T/C [12] 2.57% | viability, T/C [18] 5.24% | viability, T/C [24] 4.35% | viability, T/C [30] 1.21% | viability, T/C [36] 2.29%
> 7.50: pIC50 (second compound 10 µM)
5.21: pIC50 (second compound 0.0316 µM)
inactive: viability, T/C [1] 110% | viability, T/C [2] 104% | viability, T/C [3] 107% | viability, T/C [4] 115% | viability, T/C [5] 106% | viability, T/C [6] 10.1% | viability, T/C [7] 112% | viability, T/C [8] 98.1% | viability, T/C [9] 66.5% | viability, T/C [10] 109% | viability, T/C [11] 93% | viability, T/C [13] 99.9% | viability, T/C [14] 89.3% | viability, T/C [15] 76% | viability, T/C [16] 88.3% | viability, T/C [17] 88.9% | viability, T/C [19] 97.6% | viability, T/C [20] 73.7% | viability, T/C [21] 80.8% | viability, T/C [22] 82.8% | viability, T/C [23] 67% | viability, T/C [25] 61.9% | viability, T/C [26] 51.9% | viability, T/C [27] 61.8% | viability, T/C [28] 62.4% | viability, T/C [29] 48.1% | viability, T/C [31] 32.1% | viability, T/C [32] 26.4% | viability, T/C [33] 22.6% | viability, T/C [34] 31.1% | viability, T/C [35] 9.66%
5.36: pIC50 (second compound 1 µM)
5.26: pIC50 (second compound 0.1 µM)

C[C@@H](NC(=O)c1ncnc(N)c1Cl)c1ncc(C(=O)Nc2cc(C(F)(F)F)c(Cl)cn2)s1 + Cc1nc(NC(=O)N2CCCC2C(N)=O)sc1-c1ccnc(C(C)(C)C(F)(F)F)c1
5.01: pIC50 (second compound 1 µM)
> 7.50: pIC50 (second compound 10 µM)
6.34: pIC50 (second compound 3.16 µM)
inactive: viability, T/C [1] 101% | viability, T/C [2] 75.5% | viability, T/C [3] 113% | viability, T/C [4] 136% | viability, T/C [5] 112% | viability, T/C [6] 106% | viability, T/C [7] 109% | viability, T/C [8] 90.3% | viability, T/C [9] 104% | viability, T/C [10] 110% | viability, T/C [11] 104% | viability, T/C [12] 54.8% | viability, T/C [13] 111% | viability, T/C [14] 104% | viability, T/C [15] 87.7% | viability, T/C [16] 63.9% | viability, T/C [17] 92.8% | viability, T/C [18] 79.4% | viability, T/C [19] 90.4% | viability, T/C [20] 93.3% | viability, T/C [21] 69% | viability, T/C [22] 94.4% | viability, T/C [23] 99.4% | viability, T/C [24] 48.8% | viability, T/C [25] 51.5% | viability, T/C [26] 71.5% | viability, T/C [27] 52% | viability, T/C [28] 42.5% | viability, T/C [29] 37.9% | viability, T/C [30] 35.8% | viability, T/C [31] 33.1% | viability, T/C [32] 29.2% | viability, T/C [33] 34.1% | viability, T/C [34] 38% | viability, T/C [35] 14.4% | viability, T/C [36] 14%
< 5.00: pIC50 (second compound 0.0316 µM) | pIC50 (second compound 0.1 µM) | pIC50 (second compound 0.316 µM)

Cn1ncnc1[C@H]1c2n[nH]c(=O)c3cc(F)cc(c23)N[C@@H]1c1ccc(F)cc1 + Cc1nc(NC(=O)N2CCCC2C(N)=O)sc1-c1ccnc(C(C)(C)C(F)(F)F)c1
> 9.50: pIC50 (second compound 10 µM)
< 7.00: pIC50 (second compound 0.0316 µM) | pIC50 (second compound 0.1 µM) | pIC50 (second compound 0.316 µM) | pIC50 (second compound 1 µM)
inactive: viability, T/C (second compound 0.0316 µM, first compound 0.000316 µM) 101% | viability, T/C (second compound 0.0316 µM, first compound 0.001 µM) 97.2% | viability, T/C (second compound 0.0316 µM, first compound 0.00316 µM) 95.9% | viability, T/C (second compound 0.0316 µM, first compound 0.01 µM) 109% | viability, T/C [1] 81.1% | viability, T/C [2] 94.8% | viability, T/C (second compound 0.1 µM, first compound 0.000316 µM) 106% | viability, T/C (second compound 0.1 µM, first compound 0.001 µM) 77.2% | viability, T/C (second compound 0.1 µM, first compound 0.00316 µM) 85.2% | viability, T/C (second compound 0.1 µM, first compound 0.01 µM) 91.3% | viability, T/C [7] 75.6% | viability, T/C [8] 90.3% | viability, T/C (second compound 0.316 µM, first compound 0.000316 µM) 81.5% | viability, T/C (second compound 0.316 µM, first compound 0.001 µM) 89.5% | viability, T/C (second compound 0.316 µM, first compound 0.00316 µM) 85.3% | viability, T/C (second compound 0.316 µM, first compound 0.01 µM) 73.8% | viability, T/C [13] 58.4% | viability, T/C [14] 54.7% | viability, T/C (second compound 1 µM, first compound 0.000316 µM) 87.2% | viability, T/C (second compound 1 µM, first compound 0.001 µM) 65% | viability, T/C (second compound 1 µM, first compound 0.00316 µM) 50.3% | viability, T/C (second compound 1 µM, first compound 0.01 µM) 57.4% | viability, T/C [19] 55.5% | viability, T/C [20] 65% | viability, T/C (second compound 3.16 µM, first compound 0.000316 µM) 52.6% | viability, T/C (second compound 3.16 µM, first compound 0.001 µM) 43.5% | viability, T/C (second compound 3.16 µM, first compound 0.00316 µM) 61.8% | viability, T/C (second compound 3.16 µM, first compound 0.01 µM) 41% | viability, T/C [25] 49.4% | viability, T/C [26] 44.7% | viability, T/C (second compound 10 µM, first compound 0.000316 µM) 28.2% | viability, T/C (second compound 10 µM, first compound 0.001 µM) 30.7% | viability, T/C (second compound 10 µM, first compound 0.00316 µM) 37.6% | viability, T/C (second compound 10 µM, first compound 0.01 µM) 29.1% | viability, T/C [31] 22.8% | viability, T/C [32] 22.5%
8.74: pIC50 (second compound 3.16 µM)

Reference: PubChem BioAssay AID1963984 (Molecular Pharmacology Branch, DTP, NCI, 2024)
